From patent publication US20090018163A1, “Substituted Heterocyclic Ethers and Their Use in CNS Disorders” (Bristol-Myers Squibb Company, priority 2007, published 2009) come the findings set out here.

In one experiment the target is T1, NK-1 (Homo sapiens, UniProt P25103).
T1 construct: 30 ul/well of a 2×U373 membrane preparation; endogenous in cells; host or cells: U373 cells (crude membrane preparation)
The experiment is described as follows: NK1 radioligand binding assay. Particulars: U373 membrane preparation, [125I]Substance P. The protocol:
(§1) NK-1 Binding assay. Crude membrane suspensions were prepared for the NK1 and SERT radioligand binding assays from U373 cells or recombinant HEK-293 cells expressing hSERT, respectively. Cells were harvested from T-175 flasks as follows. The medium is removed from the flasks and the cells rinsed with HBSS without Ca and without Mg. The cells are then incubated for 5-10 minutes in 10 mM Tris-Cl, pH 7.5, 5 mM EDTA before the cells are lifted with a combination of pipetting and scraping, as needed. To prepare membranes, the cell suspension is collected into centrifuge bottles and homogenized for 30 seconds with a Polytron homogenizer. The suspension is centrifuged for 30 min @ 32,000×g, 4° C., then the supernatant is decanted and the pellet resuspended and homogenized in 50 mM Tris-Cl, pH 7.5, 1 mM EDTA for 10 seconds. The suspension is then centrifuged again for 30 min @ 32,000×g, 4° C. The supernatant is decanted and the pellet resuspended in 50 mM Tris-Cl, pH 7.5, 1 mM EDTA and briefly homogenized. A Bradford assay (Bio-rad) is performed and the membrane preparation diluted to 2 mg/ml with 50 mM Tris-Cl, pH 7.5, 1 mM EDTA. Aliquots are prepared, and then frozen and stored at −80° C.
NK1 radioligand binding assay. Compounds are dissolved in 100% DMSO at a concentration 100× the desired highest assay concentration, serially diluted 1:3 in 100% DMSO, and 0.6 ul/well of each solution is dispensed to a Nunc polypropylene, round bottom, 384 well plate. 100% inhibition is defined with 0.6 ul/well of 1 mM L-733,060 (Sigma L-137) dissolved in DMSO. 30 ul/well of a 2×U373 membrane preparation (267 ug/ml in 100 mM Tris-Cl, pH 7.5, 6 mM MgCl2, 0.2% (v/v) Sigma mammalian protease inhibitor cocktail (Sigma P-8340), and 4 ug/ml chymostatin, Sigma C-7268) and 30 ul/well of a 2× radioligand solution (400 pM [^125I]Substance P (Perkin Elmer NEX-190) in 1% (w/v) BSA (Sigma A-2153), 0.1 mg/ml bacitracin, Sigma B-0125) are added to the well and the reaction incubated for 1 hour at room temperature. The contents of the assay plate are then transferred to a Millipore MultiscreenHTS GF/B filter plate which has been pretreated with 0.5% PEI for at least one hour. The plate is vacuum filtered and washed with 7 washes of 100 ul/well of 20 mM Tris-Cl, pH 7.5, 0.5% (w/v) BSA chilled to 4° C. The filtration and washing is completed in less than 90 s. The plates are air-dried overnight, 12 ul/well of MicroScint scintillation fluid added, and the plates counted in a Trilux.
(§2) Data analysis. The raw data are normalized to percent inhibition using control wells defining 0% (DMSO only) and 100% (selective inhibitor) inhibition which are run on each plate. Each plate is run in triplicate, and the concentration response curve thus generated is fit using the four-parameter dose response equation, Y=Bottom+(Top-Bottom)/(1+10̂((LogIC50−X)*HillSlope)) in order to determine the IC50 value for each compound. The radioligand concentration chosen for each assay corresponds to the Kd concentration determined through saturation binding analysis for each assay.

A further experiment has as its target T2, hSERT (Homo sapiens, UniProt P31645).
T2 construct: expressed in transfected cells; host or cells: HEK-293 cells (crude membrane preparation)
The experiment is described as follows: SERT radioligand binding assay. The method, then:
as §1
SERT radioligand binding assay. Compounds are dissolved in 100% DMSO at a concentration 100× the desired highest assay concentration, serially diluted 1:3 in 100% DMSO, and 0.4 ul/well of each solution is dispensed to a Nunc polypropylene, round bottom, 384 well plate. 100% inhibition is defined with 0.4 ul/well of 1 mM fluoxetine (Sigma F-132) dissolved in DMSO. 20 ul/well of a 2×HEK-hSERT membrane preparation (15 ug/ml in 50 mM Tris-Cl, pH 7.5, 120 mM NaCl, 5 mM KCl) and 20 ul/well of a 2× radioligand solution (520 pM [^125I]RTI-55 (Perkin-Elmer NEX-272) in 50 mM Tris-Cl, pH 7.5, 120 mM NaCl, 5 mM KCl) are added to each well and the reaction incubated for 1 hour at room temperature. The contents of the assay plate are then transferred to a Millipore MultiscreenHTS GF/B filter plate which has been pretreated with 0.5% PEI for at least one hour. The plate is vacuum filtered and washed with 7 washes of 100 ul/well of 50 mM Tris-Cl, pH 7.5, 120 mM NaCl, 5 mM KCl chilled to 4° C. The filtration and washing is completed in less than 90 s. The plates are air-dried overnight, 12 ul/well of MicroScint scintillation fluid added, and the plates counted in a Trilux.
as §2

The mark [1] stands for this setting: HEK-hSERT membrane preparation, [125I]RTI-55, Table 1, read-out: SERT IC50.
The mark [2] stands for this setting: HEK-hSERT membrane preparation, [125I]RTI-55, Table 1a, single enantiomers, read-out: SERT IC50.

Where two headings read alike, the source gives them in different places.

T2 sequence (P31645 whole entry): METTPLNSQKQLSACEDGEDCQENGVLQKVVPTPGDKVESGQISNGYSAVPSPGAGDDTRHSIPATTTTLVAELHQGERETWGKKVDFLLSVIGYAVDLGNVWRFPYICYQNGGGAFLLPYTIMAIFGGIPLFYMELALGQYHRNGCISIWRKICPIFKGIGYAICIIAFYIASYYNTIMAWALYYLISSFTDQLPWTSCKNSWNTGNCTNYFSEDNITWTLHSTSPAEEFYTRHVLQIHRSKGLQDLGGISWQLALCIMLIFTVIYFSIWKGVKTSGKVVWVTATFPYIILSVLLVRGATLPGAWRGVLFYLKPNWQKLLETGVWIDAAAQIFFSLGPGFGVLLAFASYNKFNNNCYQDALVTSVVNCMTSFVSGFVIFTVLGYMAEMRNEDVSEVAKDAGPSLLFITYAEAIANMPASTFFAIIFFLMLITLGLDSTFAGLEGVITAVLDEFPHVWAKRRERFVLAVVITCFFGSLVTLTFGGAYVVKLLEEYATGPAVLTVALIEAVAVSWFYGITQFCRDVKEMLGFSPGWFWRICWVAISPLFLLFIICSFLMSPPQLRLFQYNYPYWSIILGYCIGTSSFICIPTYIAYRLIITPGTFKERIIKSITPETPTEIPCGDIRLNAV
T1 sequence (P25103 whole entry): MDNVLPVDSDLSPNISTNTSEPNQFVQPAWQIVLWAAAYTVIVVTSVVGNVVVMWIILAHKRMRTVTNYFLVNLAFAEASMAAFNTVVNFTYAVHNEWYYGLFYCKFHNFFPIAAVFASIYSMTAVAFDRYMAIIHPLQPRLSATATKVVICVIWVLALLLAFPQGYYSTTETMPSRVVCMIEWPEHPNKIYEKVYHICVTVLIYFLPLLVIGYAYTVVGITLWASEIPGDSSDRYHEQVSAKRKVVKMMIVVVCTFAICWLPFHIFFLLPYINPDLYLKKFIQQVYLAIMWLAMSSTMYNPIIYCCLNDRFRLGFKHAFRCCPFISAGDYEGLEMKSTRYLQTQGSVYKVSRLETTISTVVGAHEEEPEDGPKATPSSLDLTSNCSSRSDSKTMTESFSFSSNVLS

Turning to `FC(F)(F)c1cccc2nc(COCC3(c4ccccc4)CCNCC3)ccc12` [Example 48, 2-(((4-phenylpiperidin-4-yl)methoxy)methyl)-5-(trifluoromethyl)quinoline], the results for the IC50 on NK-1 (Table 1) and at hSERT (setting [1]) were above 300 nM and 0.01 to 100 nM, respectively.
Consider `CC(OCC1(c2ccc(F)cc2F)CCN(C)CC1)c1cc(C(F)(F)F)cc2cccnc12` (stereo not shown) [Example 38], for which the IC50 at NK-1 (Table 1) and at hSERT (setting [1]) was 0.01 to 100 nM each time.
Regarding `CN(C)c1cc(COCC2(c3ccccc3)CCNCC2)nc2ccccc12` [Example 16, N,N-dimethyl-2-(((4-phenylpiperidin-4-yl)methoxy)methyl)quinolin-4-amine], the IC50 was above 300 nM on NK-1 (Table 1) and 0.01 to 100 nM at hSERT (setting [1]).
Take `CC(OCC1(c2ccc(F)cc2)CCN(C)CC1)c1cc(C(F)(F)F)cc2cccnc12` (single isomer, unassigned) [Example 69]: the IC50 is above 300 nM at NK-1 (Table 1a, single enantiomers) and 0.01 to 100 nM on hSERT (read-out: SERT IC50, HEK-hSERT membrane preparation, [125I]RTI-55, Table 1a, single enantiomers).
Consider `CC(OCC1(c2ccc(F)cc2)CCNCC1)c1cc(Br)cc2cccnc12` (single isomer, unassigned) [Example 77], for which the IC50 on NK-1 (Table 1a, single enantiomers) was 0.01 to 100 nM; at hSERT (setting [2]), 0.01 to 100 nM.
For the compound `Cc1cc(COCC2(c3ccc(F)cc3F)CCN(C)CC2)c2ncccc2c1` [Example 28], the IC50 on NK-1 (Table 1) lay within 100 to 300 nM; at hSERT, 0.01 to 100 nM.
Consider `CC(OCC1(c2ccc(F)cc2)CCN(C)CC1)c1cc(Br)cc2cccnc12` (single isomer, unassigned) [Example 79], for which the IC50 on NK-1 (Table 1a, single enantiomers) lay in the range of 0.01 to 100 nM; on hSERT (setting [2]), 0.01 to 100 nM.
With `CN1CCC(COCc2cc(C#N)cc3cccnc23)(c2ccc(F)cc2)CC1` [Example 44, 8-(((4-(4-fluorophenyl)-1-methylpiperidin-4-yl)methoxy)methyl)quinoline-6-carbonitrile], the results for the IC50 at NK-1 (Table 1) and on hSERT were above 300 nM and 0.01 to 100 nM, respectively.
`CC(OCC1(c2ccc(F)cc2)CCN(C)CC1)c1cc(C(F)(F)F)cc2cccnc12` (stereo not shown) [Example 34]: the IC50 on NK-1 (Table 1) and at hSERT (setting [1]) was 0.01 to 100 nM throughout.
In the case of `N#Cc1cc(COCC2(c3ccccc3)CCNCC2)nc2ccccc12` [Example 14, 2-(((4-phenylpiperidin-4-yl)methoxy)methyl)quinoline-4-carbonitrile], the results for the IC50 on NK-1 (Table 1) and at hSERT (setting [1]) were above 300 nM and 0.01 to 100 nM, respectively.
For `CN1CCC(COCc2cc(C(F)(F)F)cc3cccnc23)(c2ccc(F)cc2)CC1` [Example 32, 8-(((4-(4-fluorophenyl)-1-methylpiperidin-4-yl)methoxy)methyl)-6-(trifluoromethyl)quinoline], the IC50 at NK-1 (Table 1) and at hSERT (setting [1]) was 0.01 to 100 nM each time.
Take `Cc1cc(C(C)OCC2(c3ccc(F)cc3)CCN(C)CC2)c2ncccc2c1` (single isomer, unassigned) [Example 76]: the IC50 at NK-1 (Table 1a, single enantiomers) lay in the range of 0.01 to 100 nM; on hSERT (setting [2]), 0.01 to 100 nM.
Take `CC(OCC1(c2ccc(F)cc2F)CCNCC1)c1cc(C(F)(F)F)cc2cccnc12` (stereo not shown) [Example 37]: the IC50 at NK-1 (Table 1) and on hSERT (setting [1]) was 0.01 to 100 nM throughout.
Turning to `Nc1cc(COCC2(c3ccccc3)CCNCC2)nc2ccccc12` [Example 7], the IC50 on NK-1 (Table 1) is above 300 nM; on hSERT (setting [1]), 0.01 to 100 nM.
As for `Cc1cc(COCC2(c3ccccc3)CCN(C)CC2)c2ccccc2n1` [Example 2, 2-methyl-4-(((1-methyl-4-phenylpiperidin-4-yl)methoxy)methyl)quinoline], the IC50 on NK-1 (Table 1) was above 300 nM; on hSERT, 0.01 to 100 nM.
As to `Cc1cc(COCC2(c3ccc(F)cc3)CCNCC2)c2ncccc2c1` [Example 29], the IC50 on NK-1 (Table 1) and on hSERT (setting [1]) was 0.01 to 100 nM in each case.
With `CC(OCC1(c2ccc(F)cc2)CCNCC1)c1cc(C(F)(F)F)cc2cccnc12` (single isomer, unassigned) [Example 67], the IC50 at NK-1 (Table 1a, single enantiomers) was above 300 nM; on hSERT (setting [2]), 0.01 to 100 nM.
On to `Cc1cc(COCC2(c3ccccc3)CCN(C)CC2)c2ncccc2c1` [Example 26], for which the IC50 on NK-1 (Table 1) and at hSERT (setting [1]) was 0.01 to 100 nM in each case.
Turning to `Cc1cc(COCC2(c3ccc(F)cc3F)CCNCC2)c2ncccc2c1` [Example 27], the IC50 at NK-1 (Table 1) and at hSERT (setting [1]) was 0.01 to 100 nM in each case.
As for `Cc1cccc2nc(COCC3(c4ccccc4)CCNCC3)cc(C)c12` [Example 21], the IC50 on NK-1 (Table 1) was above 300 nM; at hSERT (setting [1]), 0.01 to 100 nM.
For `Cc1cc(COCC2(c3ccc(F)cc3)CCN(C)CC2)c2ncccc2c1` [Example 30] the same measures were 0.01 to 100 nM and 0.01 to 100 nM.
With `CN1CCC(COCc2cc(Br)cc3cccnc23)(c2ccccc2)CC1` [Example 23], the IC50 on NK-1 (Table 1) and at hSERT (setting [1]) was 0.01 to 100 nM throughout.
Turning to `CN1CCC(COCc2cc(-c3ccc(C#N)cc3)cc3cccnc23)(c2ccccc2)CC1` [Example 25], the IC50 is above 300 nM at NK-1 (Table 1) and 0.01 to 100 nM on hSERT.
`Cc1cc(C(C)OCC2(c3ccc(F)cc3)CCN(C)CC2)c2nc(F)ccc2c1` (stereo not shown) [Example 52]: the IC50 on NK-1 (Table 1) and at hSERT (setting [1]) was 0.01 to 100 nM in each case.
For the compound `CNc1cc(COCC2(c3ccccc3)CCNCC2)nc2cccc(C(F)(F)F)c12` [Example 45, N-methyl-2-(((4-phenylpiperidin-4-yl)methoxy)methyl)-5-(trifluoromethyl)quinolin-4-amine], the results for the IC50 at NK-1 (Table 1) and on hSERT (setting [1]) were above 300 nM and 0.01 to 100 nM, respectively.
For `Cc1ccc2cc(COCC3(c4ccccc4)CCNCC3)ccc2n1` [Example 9] the same measures were above 300 nM and 0.01 to 100 nM.
The corresponding values for `Brc1cc(COCC2(c3ccccc3)CCNCC2)c2ncccc2c1` [Example 22] are 0.01 to 100 nM and 0.01 to 100 nM.
For `Cc1cc(C(C)OCC2(c3ccc(F)cc3)CCN(C)CC2)c2nc(Cl)ccc2c1` (stereo not shown) [Example 49] the same measures were 0.01 to 100 nM and 0.01 to 100 nM.
`CC(OCC1(c2ccccc2)CCN(C)CC1)c1cc(C(F)(F)F)cc2cccnc12` (single isomer, unassigned) [Example 74]: the IC50 was in the range of 0.01 to 100 nM at NK-1 (Table 1a, single enantiomers) and 0.01 to 100 nM on hSERT (setting [2]).
For the compound `CC(OCC1(c2ccc(F)cc2)CCNCC1)c1cc(C(F)(F)F)cc2cccnc12` (single isomer, unassigned) [Example 68], the IC50 on NK-1 (Table 1a, single enantiomers) is 0.01 to 100 nM; on hSERT (setting [2]) it was 0.01 to 100 nM.
Turning to `FC(F)(F)c1ccc2c(Cl)cc(COCC3(c4ccccc4)CCNCC3)nc2c1` [Example 17, 4-chloro-2-(((4-phenylpiperidin-4-yl)methoxy)methyl)-7-(trifluoromethyl)quinoline], the results for the IC50 on NK-1 (Table 1) and on hSERT (setting [1]) were above 300 nM and 0.01 to 100 nM, respectively.
Take `CC(OCC1(c2ccc(F)cc2)CCNCC1)c1cc(C(F)(F)F)cc2cccnc12` (stereo not shown) [Example 33]: the IC50 at NK-1 (Table 1) and on hSERT (setting [1]) was 0.01 to 100 nM throughout.
